# Reference: patent publication US20080090734A1, “DRUG SCREENING AND TARGET IDENTIFICATION USING SPR IMAGING OF TARGET PROTEIN ARRAYS” (The Trustees of California State University, priority 2006, published 2008)
# Tests used:
# [1] = biological target: Bovine Serum Albumin (BSA) (Bos taurus, UniProt P02769); assay: SPR binding of ferulic acid to pre-immobilized BSA; settings: 10, 20, and 50 μM injected; flow rate 1 mL/h
# Protocol: By injecting solutions containing different concentrations of FA and recording the resultant sensorgrams, the binding constant between FA and BSA was measured. […] Three different FA concentrations (10, 20, and 50 μM) were injected. A flow rate of 1 mL/h was used. [drawing 1] [drawing] Representative SPR sensorgrams showing binding of ferulic acid (structure on the left) onto pre-immobilized BSA molecules.
# MurG protein = MurG protein (Escherichia coli, UniProt P17443); assay: Target-inhibitor interaction by SPR; assay type: binding
# Excerpt: (§1) We have examined specific binding interactions between select target proteins and their specific inhibitors. […] [drawing]
# [2] = biological target: TrpS protein (tryptophanyl tRNA synthetase) (Escherichia coli, UniProt P00954); assay: Target-inhibitor interaction by SPR; assay type: binding
# Excerpt: as §1
# [3] = test system: A. baumannii clinical isolate LAC 01; assay: Antibiotic susceptibility profile; assay type: cell-based, Acinetobacter baumannii; parameters: key: Resistance; Intermediate; Susceptible
# Outline: (§2)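 R/I/S calls per drug; panel limited to agents having A. baumannii breakpoints; isolates from hospital-acquired infections, LA County and NYC.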
# [4] = test system: A. baumannii clinical isolate LAC 02; assay: Antibiotic susceptibility profile; assay type: cell-based, Acinetobacter baumannii; parameters: key: Resistance; Intermediate; Susceptible
# Outline: as §2
# [5] = test system: A. baumannii clinical isolate LAC 03; assay: Antibiotic susceptibility profile; assay type: cell-based, Acinetobacter baumannii; parameters: key: Resistance; Intermediate; Susceptible
# Outline: as §2
# [6] = test system: A. baumannii clinical isolate LAC 04; assay: Antibiotic susceptibility profile; assay type: cell-based, Acinetobacter baumannii; parameters: key: Resistance; Intermediate; Susceptible
# Outline: as §2
# [7] = test system: A. baumannii clinical isolate LAC 05; assay: Antibiotic susceptibility profile; assay type: cell-based, Acinetobacter baumannii; parameters: key: Resistance; Intermediate; Susceptible
# Outline: as §2
# [8] = test system: A. baumannii clinical isolate LAC 06; assay: Antibiotic susceptibility profile; assay type: cell-based, Acinetobacter baumannii; parameters: key: Resistance; Intermediate; Susceptible
# Outline: as §2
# [9] = test system: A. baumannii clinical isolate LAC 07; assay: Antibiotic susceptibility profile; assay type: cell-based, Acinetobacter baumannii; parameters: key: Resistance; Intermediate; Susceptible
# Outline: as §2
# [10] = test system: A. baumannii clinical isolate LAC 08; assay: Antibiotic susceptibility profile; assay type: cell-based, Acinetobacter baumannii; parameters: key: Resistance; Intermediate; Susceptible
# Outline: as §2
# [11] = test system: A. baumannii clinical isolate LAC 09; assay: Antibiotic susceptibility profile; assay type: cell-based, Acinetobacter baumannii; parameters: key: Resistance; Intermediate; Susceptible
# Outline: as §2
# [12] = test system: A. baumannii clinical isolate LAC 10; assay: Antibiotic susceptibility profile; assay type: cell-based, Acinetobacter baumannii; parameters: key: Resistance; Intermediate; Susceptible
# Outline: as §2
# [13] = test system: A. baumannii clinical isolate LAC 11; assay: Antibiotic susceptibility profile; assay type: cell-based, Acinetobacter baumannii; parameters: key: Resistance; Intermediate; Susceptible
# Outline: as §2
# [14] = test system: A. baumannii clinical isolate LAC 12; assay: Antibiotic susceptibility profile; assay type: cell-based, Acinetobacter baumannii; parameters: key: Resistance; Intermediate; Susceptible
# Outline: as §2
# [15] = test system: A. baumannii clinical isolate LAC 13; assay: Antibiotic susceptibility profile; assay type: cell-based, Acinetobacter baumannii; parameters: key: Resistance; Intermediate; Susceptible
# Outline: as §2
# [16] = test system: A. baumannii clinical isolate LAC 14; assay: Antibiotic susceptibility profile; assay type: cell-based, Acinetobacter baumannii; parameters: key: Resistance; Intermediate; Susceptible
# Outline: as §2
# [17] = test system: A. baumannii clinical isolate LAC 15; assay: Antibiotic susceptibility profile; assay type: cell-based, Acinetobacter baumannii; parameters: key: Resistance; Intermediate; Susceptible
# Outline: as §2
# [18] = test system: A. baumannii clinical isolate LAC 16; assay: Antibiotic susceptibility profile; assay type: cell-based, Acinetobacter baumannii; parameters: key: Resistance; Intermediate; Susceptible
# Outline: as §2
# [19] = test system: A. baumannii clinical isolate LAC 17; assay: Antibiotic susceptibility profile; assay type: cell-based, Acinetobacter baumannii; parameters: key: Resistance; Intermediate; Susceptible
# Outline: as §2
# [20] = test system: A. baumannii clinical isolate LAC 18; assay: Antibiotic susceptibility profile; assay type: cell-based, Acinetobacter baumannii; parameters: key: Resistance; Intermediate; Susceptible
# Outline: as §2
# [21] = test system: A. baumannii clinical isolate LAC 19; assay: Antibiotic susceptibility profile; assay type: cell-based, Acinetobacter baumannii; parameters: key: Resistance; Intermediate; Susceptible
# Outline: as §2
# [22] = test system: A. baumannii clinical isolate LAC 20; assay: Antibiotic susceptibility profile; assay type: cell-based, Acinetobacter baumannii; parameters: key: Resistance; Intermediate; Susceptible
# Outline: as §2
# [23] = test system: A. baumannii clinical isolate NY A; assay: Antibiotic susceptibility profile; assay type: cell-based, Acinetobacter baumannii; parameters: key: Resistance; Intermediate; Susceptible
# Outline: as §2
# [24] = test system: A. baumannii clinical isolate NY B; assay: Antibiotic susceptibility profile; assay type: cell-based, Acinetobacter baumannii; parameters: key: Resistance; Intermediate; Susceptible
# Outline: as §2
# [25] = test system: A. baumannii clinical isolate NY C; assay: Antibiotic susceptibility profile; assay type: cell-based, Acinetobacter baumannii; parameters: key: Resistance; Intermediate; Susceptible
# Outline: as §2
# [26] = test system: A. baumannii clinical isolate NY D; assay: Antibiotic susceptibility profile; assay type: cell-based, Acinetobacter baumannii; parameters: key: Resistance; Intermediate; Susceptible
# Outline: as §2
# [27] = test system: A. baumannii clinical isolate NY E; assay: Antibiotic susceptibility profile; assay type: cell-based, Acinetobacter baumannii; parameters: key: Resistance; Intermediate; Susceptible
# Outline: as §2
# [28] = test system: A. baumannii clinical isolate NY F; assay: Antibiotic susceptibility profile; assay type: cell-based, Acinetobacter baumannii; parameters: key: Resistance; Intermediate; Susceptible
# Outline: as §2
# [29] = test system: A. baumannii clinical isolate NY G; assay: Antibiotic susceptibility profile; assay type: cell-based, Acinetobacter baumannii; parameters: key: Resistance; Intermediate; Susceptible
# Outline: as §2
# [30] = test system: A. baumannii clinical isolate NY H; assay: Antibiotic susceptibility profile; assay type: cell-based, Acinetobacter baumannii; parameters: key: Resistance; Intermediate; Susceptible
# Outline: as §2
# [31] = test system: A. baumannii reference strain 15839; assay: Antibiotic susceptibility profile; assay type: cell-based, Acinetobacter baumannii; parameters: key: Resistance; Intermediate; Susceptible; settings: strain 15839 (ATCC)
# Outline: (§3)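 Isolates were collected from nosocomial infections in two US cities (Los Angeles County, New York City). Antibiotics lacking A. baumannii-specific breakpoints were excluded from testing. Susceptibility was then scored as R, I or S.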
# [32] = test system: A. baumannii reference strain 17978; assay: Antibiotic susceptibility profile; assay type: cell-based, Acinetobacter baumannii; parameters: key: Resistance; Intermediate; Susceptible; settings: strain 17978 (ATCC)
# Outline: as §3
# [33] = test system: A. baumannii reference strain 19606; assay: Antibiotic susceptibility profile; assay type: cell-based, Acinetobacter baumannii; parameters: key: Resistance; Intermediate; Susceptible; settings: strain 19606 (ATCC)
# Outline: as §3
# [34] = test system: A. baumannii reference strain AYE; assay: Antibiotic susceptibility profile; assay type: cell-based, Acinetobacter baumannii; parameters: key: Resistance; Intermediate; Susceptible
# Outline: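 Clinical isolates from nosocomial infections in New York City and Los Angeles, tested alongside reference strains against only antibiotics having A. baumannii breakpoints; each scored R (resistant), I (intermediate) or S (susceptible).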
# [35] = test system: A. baumannii reference strain SDF; assay: Antibiotic susceptibility profile; assay type: cell-based, Acinetobacter baumannii; parameters: key: Resistance; Intermediate; Susceptible
# Outline: as §3
# Chain of MurG protein (P17443 whole entry): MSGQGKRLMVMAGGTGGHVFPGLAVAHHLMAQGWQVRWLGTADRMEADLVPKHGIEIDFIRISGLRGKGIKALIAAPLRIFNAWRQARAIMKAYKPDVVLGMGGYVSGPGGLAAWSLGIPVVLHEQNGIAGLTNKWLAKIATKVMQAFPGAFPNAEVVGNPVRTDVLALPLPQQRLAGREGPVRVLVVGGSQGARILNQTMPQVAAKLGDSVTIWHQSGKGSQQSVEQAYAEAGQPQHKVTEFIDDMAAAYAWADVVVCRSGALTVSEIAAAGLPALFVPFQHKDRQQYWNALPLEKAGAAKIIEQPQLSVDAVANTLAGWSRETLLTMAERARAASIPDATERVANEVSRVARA
# Chain of Bovine Serum Albumin (BSA) (P02769 25-607): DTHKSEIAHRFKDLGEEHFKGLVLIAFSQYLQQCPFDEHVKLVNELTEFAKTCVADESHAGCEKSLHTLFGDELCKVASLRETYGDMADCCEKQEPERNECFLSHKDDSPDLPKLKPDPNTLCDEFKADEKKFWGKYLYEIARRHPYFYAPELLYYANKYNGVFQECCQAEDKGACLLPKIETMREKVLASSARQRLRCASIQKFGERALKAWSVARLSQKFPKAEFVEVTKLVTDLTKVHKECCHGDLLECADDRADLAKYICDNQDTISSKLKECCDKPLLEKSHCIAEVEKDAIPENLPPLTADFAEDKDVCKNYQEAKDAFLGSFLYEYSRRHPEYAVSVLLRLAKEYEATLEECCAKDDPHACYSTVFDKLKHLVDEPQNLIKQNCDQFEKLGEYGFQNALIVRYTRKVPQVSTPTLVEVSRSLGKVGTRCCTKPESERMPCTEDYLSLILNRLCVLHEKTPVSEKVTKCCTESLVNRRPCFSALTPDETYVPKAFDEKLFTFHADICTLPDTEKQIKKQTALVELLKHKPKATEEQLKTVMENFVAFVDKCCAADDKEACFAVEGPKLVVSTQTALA
Molecule,Antibiotic susceptibility [3],Antibiotic susceptibility [4],Antibiotic susceptibility [5],Antibiotic susceptibility [6],Antibiotic susceptibility [7],Antibiotic susceptibility [8],Antibiotic susceptibility [9],Antibiotic susceptibility [10],Antibiotic susceptibility [11],Antibiotic susceptibility [12],Antibiotic susceptibility [13],Antibiotic susceptibility [14],Antibiotic susceptibility [15],Antibiotic susceptibility [16],Antibiotic susceptibility [17],Antibiotic susceptibility [18],Antibiotic susceptibility [19],Antibiotic susceptibility [20],Antibiotic susceptibility [21],Antibiotic susceptibility [22],other results
COc1cc(/C=C/C(=O)O)ccc1O [ferulic acid],,,,,,,,,,,,,,,,,,,,,binding onto pre-immobilized BSA (SPR sensorgrams) [1]: binding
ramoplanin,,,,,,,,,,,,,,,,,,,,,binding to MurG protein by SPR (MurG protein): Dose-dependent specific binding
CN=C1NC(=O)[C@H]([C@H](C)c2c[nH]c3ccccc23)O1 [indolmycin],,,,,,,,,,,,,,,,,,,,,interaction with TrpS protein by SPR [2]: Specific interaction
Gentamicin,R,I,R,R,R,R,R,R,R,R,R,R,I,R,I,R,R,R,R,R,Antibiotic susceptibility [23]: R; Antibiotic susceptibility [24]: R; Antibiotic susceptibility [25]: R; Antibiotic susceptibility [26]: R; Antibiotic susceptibility [27]: R; Antibiotic susceptibility [28]: R; Antibiotic susceptibility [29]: S; Antibiotic susceptibility [30]: R; Antibiotic susceptibility [31]: R; Antibiotic susceptibility [32]: S; Antibiotic susceptibility [33]: R; Antibiotic susceptibility [34]: R; Antibiotic susceptibility [35]: S
"CC(C)(O/N=C(\C(=O)N[C@@H]1C(=O)N2C(C(=O)[O-])=C(C[n+]3ccccc3)CS[C@H]12)c1csc(N)n1)C(=O)O [CAZ, Ceftazidime]",R,R,R,R,I,S,R,I,R,R,R,R,R,R,R,R,R,R,R,R,Antibiotic susceptibility [23]: R; Antibiotic susceptibility [24]: R; Antibiotic susceptibility [25]: R; Antibiotic susceptibility [26]: R; Antibiotic susceptibility [27]: R; Antibiotic susceptibility [28]: R; Antibiotic susceptibility [29]: R; Antibiotic susceptibility [30]: R; Antibiotic susceptibility [31]: R; Antibiotic susceptibility [32]: S; Antibiotic susceptibility [33]: S; Antibiotic susceptibility [34]: R; Antibiotic susceptibility [35]: S
"CO/N=C(\C(=O)N[C@@H]1C(=O)N2C(C(=O)O)=C(COC(C)=O)CS[C@H]12)c1csc(N)n1 [CTX, Cefotaxime]",R,R,R,R,I,R,R,I,R,R,R,R,R,R,R,R,R,R,R,R,Antibiotic susceptibility [23]: R; Antibiotic susceptibility [24]: R; Antibiotic susceptibility [25]: R; Antibiotic susceptibility [26]: R; Antibiotic susceptibility [27]: R; Antibiotic susceptibility [28]: R; Antibiotic susceptibility [29]: R; Antibiotic susceptibility [30]: R; Antibiotic susceptibility [31]: R; Antibiotic susceptibility [32]: S; Antibiotic susceptibility [33]: I; Antibiotic susceptibility [34]: R; Antibiotic susceptibility [35]: S
